The values that follow are results of earlier work, collected in paper PMC5082644 (Molecular Vision, 2016).

The test system of the series is complement activation / C5b-9n (MAC) deposition in human fetal RPE cell cultures. Conditions: among peptides with polar dipeptides added at the N-terminus.

As to “Ac-RSI[CV(meW)QDWGAHRC]T-NH2 (disulfide)”, the “Efficacy in the human RPE cell-based assay” value is listed as “most efficacious”.
